The source of these data is patent US20010034330A1, “Innate immunity-stimulating compositions of CpG and saponin and methods thereof” (priority 1998, published 2001).

One test has as its system YAC-1 cells. The test can be described thus: Natural killer cell activity: 51Cr release lysis of YAC-1 target cells by splenocytes of treated mice. The class given is in vivo, Balb/c mice. The note with it: for NK cell response (lysis of YAC-1 cells): Example 1, FIG. 1, 10 ug each, subcutaneous, days 1 and 2; for NK cell response (lysis of YAC-1 cells) / NK activity, dose response: splenocytes day 3; for NK cell activity compared with QS-7 at an equivalent dose / NK activity, dose response: Example 3, FIG. 3, 3, 10, 30 ug s.c. day 1 and day 2. As for the experimental part:
Assessment of natural killer cell activity was carried out by an adaptation of a published method (Hashimoto et al., J. Immunol. 163: 583 (1999)). Balb/c mice (4 per group, female, 8-10 weeks of age) were administered one of five different candidate compositions at days 1 and 2. The compositions evaluated were (1) saline (negative control), (2) 10 ug QS-21, (3) 10 ug CpG (sequence 1826), (4) 0.5 ug murine IL-12 (positive control for NK cell activation), and (5) a combination of 10 ug QS-21 and 10 ug CpG in 0.2 ml saline. All test compositions were administered subcutaneously except for murine IL-12, which was administered intraperitoneally. Splenocytes were removed from the mice at day 3 for use as effector cells in the natural killer cell assay. Such cells were immediately used in a standard ^51Cr release lysis assay. YAC-1 cells (loaded with ^51Cr) were used as target cells. The lysis of this NK cell-sensitive line is indicative of NK cell activation in the splenocyte population.
The time dependence of the administration of CpG/QS-21 on natural killer cell activation was investigated. Balb/c mice (5 per group, female, 8-10 weeks of age) were administered a mixture of 10 ug QS-21 and 10 ug CpG sequence 1826 in a total volume of 0.2 ml by subcutaneous route seven days before (−7d), three days before (−3d), two days before (−2d), and one day before (−1d) assay of natural killer cell activity. Splenocytes were removed from the mice at day 0 for use as effector cells in the natural killer cell assay. YAC-1 cells (loaded with ^51Cr) were used as target cells. Natural killer cell lysis was apparent if the formulation of QS-21/CpG was administered one, two, or three days prior to the assay, but not if the formulation was administered seven days prior to the assay (FIG. 2). This confirms the transient nature of the natural killer cell activity.
Balb/c mice (5 per group, female, 8-10 weeks of age) were administered individually QS-7, QS-21, or CpG sequence 1826 at three different dose levels (3, 10, 30 ug) to determine a dose response curve for these individual compounds. The compositions evaluated were (1) saline (negative control), (2) 3 ug QS-21, (3) 10 ug QS-21, (4) 30 ug QS-21, (5) 3 ug QS-7(6) 10 ug QS-7, (7) 30 ug QS-7, (8) 3 ug sequence CpG 1826, (9) 10 ug CpG sequence 1826, and (10) 30 ug CpG sequence 1826. All test compositions were administered subcutaneously at day 1 and day 2. Splenocytes were removed from the mice at day 3 for use as effector cells in the natural killer cell assay. YAC-1 cells (loaded with ^51Cr) were used as target cells.
This experiment evaluated the natural killer cell stimulating activity induced by various formulations: (1) QS-21 (10 ug), (2) QS-7 (10 ug), (3) CpG sequence 1826 (10 ug), (4) CpG sequence 2006 (10 ug), (5) QS-21 (10 ug)+CpG sequence 1826 (10 ug), (6) QS-21 (10 ug)+CpG 2006 (10 ug), (7) QS-7 (10 ug)+CpG sequence 1826 ( […]), (8) QS-7 (10 ug) +CpG sequence 2006 (10 ug), (9) QS-7 (10 ug) and QS-21 (10 ug) and (10) saline. Balb/c mice (5 per group, female, 8-10 weeks of age) were administered the above formulations by subcutaneous route on day 1 and day 2. Splenocytes were removed from the mice at day 3 for use as effector cells in the natural killer cell assay. YAC-1 cells (loaded with ^51Cr) were used as target cells.

Test [1] relates to Listeria monocytogenes strain 10403s. The test can be described thus: Listeria monocytogenes challenge model (spleen colony counts). The class given is in vivo, Balb/c mice. The note with it: Example 5, FIG. 5; given day 0, i.p. challenge with 10^5 colonies day 3, spleens 96 hours after challenge; versus saline, p<0.05 for the two lowest groups. The protocol:
Balb/mice (5 per group, female, 8-10 weeks of age) were administered the following formulations on day 0: Group 1: saline, subcutaneous route. Group 2: 10 ug QS-21 and 10 ug of CpG sequence 1826, subcutaneous route. Group 3: 10 ug QS-21, subcutaneous route. Group 4: 10 ug CpG sequence 1826, subcutaneous route. Group 5: 0.5 ug recombinant murine IL-12, intraperitoneal route. A total volume of 0.2 ml was administered. On day 3, mice were challenged by the intraperitoneal route with 10^5 colonies of Listeria monocytogenes strain 10403s. Spleens were removed at 96 hours after challenge, homogenized, and then cultured in serial 10-fold dilutions overnight on agar plates. Listeria monocytogenes colonies were counted, the number of organisms per spleen determined, and then the geometric mean and standard error were determined for each group. A two-tailed, paired student's t-test of the log10 colonies/spleen was used to show statistical significance.

On to QS-21, for which, in the test on YAC-1 cells, the “NK cell response (lysis of YAC-1 cells)” value was “higher than CpG and that was nearly equivalent to the positive control, murine IL-12”; the “NK cell activity compared with QS-7 at an equivalent dose” value is “higher than that induced by QS-7”; the “NK activity, dose response” value is “enhance NK activity in a dose dependent fashion”. In addition, the “Listeria monocytogenes colony count in spleen” value in test [1] is listed as “lowest colony counts”.
As to “TCCATGACGTTCCTGACGTT [CpG sequence 1826]”, in the test on YAC-1 cells, the “NK cell response (lysis of YAC-1 cells)” value is “slightly enhanced the NK cell activity”; the “NK cell activity compared with QS-7 at an equivalent dose” value is given as “higher than that induced by QS-7”; the “NK activity, dose response” value was “enhance NK activity in a dose dependent fashion”.
